According to patent publication US9796711B2, “Substituted pyrazolo[3,4-b]pyridin-6-carboxylic acids and method of use” (AbbVie S.àr.l., priority 2015, dated 2017):

Molecular target: T1, CFTR ΔF508 (Homo sapiens, UniProt P13569, DEL508-508)
T1 construct: bronchial epithelial cells isolated from CF patients homozygous for the CFTR ΔF508 mutation; McGill University; Asterand; University of North Carolina hAEC-CF; host or cells: primary human bronchial epithelial cells from CF patients homozygous for ΔF508
T1 sequence (P13569 with tags, fused parts or gaps DEL508-508): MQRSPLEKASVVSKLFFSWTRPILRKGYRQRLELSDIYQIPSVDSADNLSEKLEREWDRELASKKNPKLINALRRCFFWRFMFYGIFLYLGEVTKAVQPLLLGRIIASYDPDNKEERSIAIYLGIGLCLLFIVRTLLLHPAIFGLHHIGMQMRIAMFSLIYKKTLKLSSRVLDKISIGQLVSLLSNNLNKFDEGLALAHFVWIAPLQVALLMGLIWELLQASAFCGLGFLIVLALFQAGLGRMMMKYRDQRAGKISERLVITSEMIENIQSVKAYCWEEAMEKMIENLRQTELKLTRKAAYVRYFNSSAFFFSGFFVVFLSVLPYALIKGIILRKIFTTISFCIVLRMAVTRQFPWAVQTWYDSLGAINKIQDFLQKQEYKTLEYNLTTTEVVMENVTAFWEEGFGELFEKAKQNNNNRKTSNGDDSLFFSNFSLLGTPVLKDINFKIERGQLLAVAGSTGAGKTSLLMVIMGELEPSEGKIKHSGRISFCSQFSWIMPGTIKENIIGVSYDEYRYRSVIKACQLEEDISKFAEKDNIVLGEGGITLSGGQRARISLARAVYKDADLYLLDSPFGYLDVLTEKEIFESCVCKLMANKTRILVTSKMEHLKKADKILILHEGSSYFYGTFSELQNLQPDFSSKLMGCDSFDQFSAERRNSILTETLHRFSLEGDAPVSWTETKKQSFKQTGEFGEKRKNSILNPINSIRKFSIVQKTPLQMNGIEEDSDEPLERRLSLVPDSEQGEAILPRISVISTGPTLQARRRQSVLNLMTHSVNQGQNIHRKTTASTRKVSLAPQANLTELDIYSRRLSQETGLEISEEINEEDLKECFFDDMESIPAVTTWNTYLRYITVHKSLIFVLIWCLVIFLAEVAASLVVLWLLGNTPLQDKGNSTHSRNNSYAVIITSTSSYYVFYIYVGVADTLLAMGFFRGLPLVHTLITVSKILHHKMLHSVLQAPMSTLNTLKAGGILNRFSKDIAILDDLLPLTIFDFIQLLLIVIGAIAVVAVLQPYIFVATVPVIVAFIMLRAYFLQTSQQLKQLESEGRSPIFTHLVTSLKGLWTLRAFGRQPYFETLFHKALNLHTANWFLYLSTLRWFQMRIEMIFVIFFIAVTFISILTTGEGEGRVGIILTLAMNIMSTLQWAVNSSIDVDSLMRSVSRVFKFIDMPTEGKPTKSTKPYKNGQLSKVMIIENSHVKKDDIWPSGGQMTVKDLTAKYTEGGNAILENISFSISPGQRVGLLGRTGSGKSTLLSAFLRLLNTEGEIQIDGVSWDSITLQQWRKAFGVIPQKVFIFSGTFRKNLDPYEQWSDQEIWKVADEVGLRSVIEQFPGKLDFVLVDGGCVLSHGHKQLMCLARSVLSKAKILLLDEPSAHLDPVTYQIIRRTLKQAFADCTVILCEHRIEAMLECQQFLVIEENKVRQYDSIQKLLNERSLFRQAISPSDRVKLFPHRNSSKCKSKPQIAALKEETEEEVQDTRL
Assay: Chronic TECC assay on primary bronchial epithelial cells (corrector, co-corrector and potentiator)
Format: cell-based
Details: chronic TECC, AUC = full area under the curve upon forskolin stimulation, with co-corrector and potentiator, 24 hours; for EC50: read-out: EC50 (nM) (AUC)
Protocol: Primary Bronchial Epithelial Cells Protocol
The TECC (Tranepithelial Clamp Circuit, EP-design) assay measures the functionality of the cystic fibrosis Transmembrane Conductance regulator (CFTR) by measuring the short circuit current (Isc) generated over the basolateral and apical membrane of lung epithelial cells. In TECC the transepithelial potential PD and transepithelial resistance (Rt)) are measured in an open circuit and transformed to Ieq using Ohm's law. 24 Wells can be measured simultaneously allowing a higher throughput compared to Ussing chambers.
For this purpose, bronchial epithelial cells isolated from CF patients homozygous for the CFTR ΔF508 mutation (hAEC-CF, Epithelix, Geneva, Switzerland; McGill University, Montreal, Qc; Asterand, Detroit, Mich.; University of North Carolina, Chapel Hill, N.C.) are plated on type IV collagen-coated Transwell® supports (Costar). Human airway epithelia are generated by provision of an air-liquid interface for 21 days to form well-differentiated polarized cultures that resemble in vivo pseudo-stratified ciliated epithelium (Fulcher, M. L., Gabriel, S., Burns, K. A., Yankaskas, J. R., Randell, S. H., 2005. Well-differentiated human airway epithelial cell cultures. Methods Mol. Med. 107, 183-206). The differentiated cells are treated with test corrector compound(s) (corrector alone or in combination with co-corrector, 4-[(2R,4R)-4-({[1-(2,2-difluoro-1,3-benzodioxol-5-yl)cyclopropyl]carbonyl}amino)-7-methoxy-3,4-dihydro-2H-chromen-2-yl]benzoic acid (G924806/A-1618261) (“acute”) or test corrector compounds, co-corrector and potentiator, N-(3-carbamoyl-5,5,7,7-tetramethyl-4,7-dihydro-5H-thieno[2,3-c]pyran-2-yl)-1H-pyrazole-5-carboxamide GLPG1837, (“chronic”) for 24 hours basolaterally to allow sufficient expression of properly folded CFTR protein on the membrane. All compound plates contained negative controls (DMSO) and positive controls (0.15 μM, 4-[(2R,4R)-4-({[1-(2,2-difluoro-1,3-benzodioxol-5-yl)cyclopropyl]carbonyl}amino)-7-(difluoromethoxy)-3,4-dihydro-2H-chromen-2-yl]benzoic acid).
For electrophysiological recording of the “chronic” experiments, the human airway epithelia are mounted in the TECC heating plate for electrophysiological measurement and kept at 37° C. The epithelia are bathed in a NaCl-Ringer solution (120 mM NaCl, 25 mM NaHCO3, 1.2 mM CaCl2, 1.2 mM MgCl2, 0.8 mM KH2PO4, 0.8 mM K2HPO4, pH 7.4, 5 mM glucose) on both the basolateral and apical sides. Test compounds (corrector, co-corrector, 4-[(2R,4R)-4-({[1-(2,2-difluoro-1,3-benzodioxol-5-yl)cyclopropyl]carbonyl}amino)-7-(difluoromethoxy)-3,4-dihydro-2H-chromen-2-yl]benzoic acid, and potentiator, N-(3-carbamoyl-5,5,7,7-tetramethyl-4,7-dihydro-5H-thieno[2,3-c]pyran-2-yl)-1H-pyrazole-5-carboxamide), are re-added to the recording solution prior to measurement. Apical amiloride is used to inhibit the endogenous ENaC currents while forskolin is applied on both apical and basolateral side to stimulate CFTR. Measurements are done during a 20 minute timeframe with recordings every 2 minutes. The increase in Ieq is used as a measure for the increased CFTR activity, EC50 values can be generated by measuring impact of different concentrations of compound on Ieq on primary cells, for this purpose each transwell is treated with a different compound concentration. Inhibitor-172, an inhibitor specific for CFTR, is used to test the specificity of the tested compounds. Raw data were normalized to percentage activity values using the equation: 100×(Sample−Negative control)/(Positive control−Negative Control).

Structure (SMILES)	EC50 [nM]	% Activity at 1 μM (AUC**) [%]	% Activity at 3 μM (AUC) [%]
CN1CCC2(CC1)CCN(c1cc(C(=O)O)nc3c1c(C1CCC1)nn3-c1ccccc1)CC2 [compound 699, 3-cyclobutyl-4-(9-methyl-3,9-diazaspiro[5.5]undecan-3-yl)-1-phenyl-1H-pyrazolo[3,4-b]pyridine-6-carboxylic acid]	162		
O=C(O)c1cc(N2CCC(N3CCN(C4CC4)CC3)CC2)c2c(C3CCC3)nn(-c3ccccc3)c2n1 [compound 738, 3-cyclobutyl-4-[4-(4-cyclopropylpiperazin-1-yl)piperidin-1-yl]-1-phenyl-1H-pyrazolo[3,4-b]pyridine-6-carboxylic acid]	23	230	
CC(C)c1nn(-c2ccc(F)cc2)c2nc(C(=O)O)cc(N3CCC(N4CCN(C5CC5)CC4)CC3)c12 [compound 754, 4-[4-(4-cyclopropylpiperazin-1-yl)piperidin-1-yl]-1-(4-fluorophenyl)-3-(propan-2-yl)-1H-pyrazolo[3,4-b]pyridine-6-carboxylic acid]		190	
CC(C)c1nn(-c2ccc(F)cc2)c2nc(C(=O)O)cc(N3CCC(C(C)N4CCCC4)CC3)c12 (stereo not shown) [compound 789, 1-(4-fluorophenyl)-3-(propan-2-yl)-4-{4-[1-(pyrrolidin-1-yl)ethyl]piperidin-1-yl}-1H-pyrazolo[3,4-b]pyridine-6-carboxylic acid]		235	
CC(C)c1nn(-c2ccc(F)cc2)c2nc(C(=O)O)cc(N3CCC(CN4CCCCC4)CC3)c12 [compound 790, 1-(4-fluorophenyl)-4-{4-[(piperidin-1-yl)methyl]piperidin-1-yl}-3-(propan-2-yl)-1H-pyrazolo[3,4-b]pyridine-6-carboxylic acid]	120	220	
CO[C@@H]1CCN(CC2CCN(c3cc(C(=O)O)nc4c3c(C3CCC3)nn4-c3ccccc3)CC2)C1 [compound 803, 3-cyclobutyl-4-(4-{[(3R)-3-methoxypyrrolidin-1-yl]methyl}piperidin-1-yl)-1-phenyl-1H-pyrazolo[3,4-b]pyridine-6-carboxylic acid]		161.4501	
COC[C@H]1CCN(CC2CCN(c3cc(C(=O)O)nc4c3c(C3CCC3)nn4-c3ccccc3)CC2)C1 [compound 804, 3-cyclobutyl-4-(4-{[(3S)-3-(methoxymethyl)pyrrolidin-1-yl]methyl}piperidin-1-yl)-1-phenyl-1H-pyrazolo[3,4-b]pyridine-6-carboxylic acid]		290	
O=C(O)c1cc(N2CCC(CCN3CCOCC3)CC2)c2c(C3CCC3)nn(-c3ccc(F)cc3)c2n1 [compound 810, 3-cyclobutyl-1-(4-fluorophenyl)-4-{4-[2-(morpholin-4-yl)ethyl]piperidin-1-yl}-1H-pyrazolo[3,4-b]pyridine-6-carboxylic acid]		191.4768	
O=C(O)c1cc(N2CCC(N3CCC(F)CC3)CC2)c2c(C3CCC3)nn(-c3ccc(F)cc3)c2n1 [compound 849, 3-cyclobutyl-4-(4-fluoro[1,4′-bipiperidin]-1′-yl)-1-(4-fluorophenyl)-1H-pyrazolo[3,4-b]pyridine-6-carboxylic acid]	15.6	256.6667	
COCCN1CCN(c2ccc(-c3cc(C(=O)O)nc4c3c(C3CCC3)nn4C3CCCCC3)cn2)CC1 [compound 878, 3-cyclobutyl-1-cyclohexyl-4-{6-[4-(2-methoxyethyl)piperazin-1-yl]pyridin-3-yl}-1H-pyrazolo[3,4-b]pyridine-6-carboxylic acid]		170	
O=C(O)c1cc(N2CCC(N3CCN(C4CC4)CC3)CC2)c2c(C3CCC3)nn(-c3ccc(F)cc3)c2n1 [compound 886, 3-cyclobutyl-4-[4-(4-cyclopropylpiperazin-1-yl)piperidin-1-yl]-1-(4-fluorophenyl)-1H-pyrazolo[3,4-b]pyridine-6-carboxylic acid]		282.5409	
O=C(O)c1cc(N2CCC3(CC2)CCN(C2CC2)CC3)c2c(C3CCC3)nn(-c3ccc(F)cc3)c2n1 [compound 887, 3-cyclobutyl-4-(9-cyclopropyl-3,9-diazaspiro[5.5]undecan-3-yl)-1-(4-fluorophenyl)-1H-pyrazolo[3,4-b]pyridine-6-carboxylic acid]	1340	273.3871	
CC(C)N1CCC2(CCN(c3cc(C(=O)O)nc4c3c(C3CCC3)nn4-c3ccc(F)cc3)CC2)CC1 [compound 890, 3-cyclobutyl-1-(4-fluorophenyl)-4-[9-(propan-2-yl)-3,9-diazaspiro[5.5]undecan-3-yl]-1H-pyrazolo[3,4-b]pyridine-6-carboxylic acid]		366.6667	
COC1CCN(C2CCN(c3cc(C(=O)O)nc4c3c(C3CCC3)nn4-c3ccc(F)cc3)CC2)CC1 [compound 892, 3-cyclobutyl-1-(4-fluorophenyl)-4-(4-methoxy[1,4′-bipiperidin]-1′-yl)-1H-pyrazolo[3,4-b]pyridine-6-carboxylic acid]	900	188.3291	
O=C(O)c1cc(N2CCC3(CC2)CCN(C2CCC2)CC3)c2c(C3CCC3)nn(-c3ccc(F)cc3)c2n1 [compound 894, 3-cyclobutyl-4-(9-cyclobutyl-3,9-diazaspiro[5.5]undecan-3-yl)-1-(4-fluorophenyl)-1H-pyrazolo[3,4-b]pyridine-6-carboxylic acid]		300	
COCCN1CCC2(CC1)CCN(c1cc(C(=O)O)nc3c1c(C1CCC1)nn3-c1ccc(F)cc1)CC2 [compound 897, 3-cyclobutyl-1-(4-fluorophenyl)-4-[9-(2-methoxyethyl)-3,9-diazaspiro[5.5]undecan-3-yl]-1H-pyrazolo[3,4-b]pyridine-6-carboxylic acid]		375	
O=C(O)c1cc(N2CCC(N3CCC(O)CC3)CC2)c2c(C3CCC3)nn(-c3ccc(F)cc3)c2n1 [compound 898, 3-cyclobutyl-1-(4-fluorophenyl)-4-(4-hydroxy[1,4′-bipiperidin]-1′-yl)-1H-pyrazolo[3,4-b]pyridine-6-carboxylic acid]	2640		150.7853
O=C(O)c1cc(N2CCC(N3CCOCC3)CC2)c2c(C3CCC3)nn(-c3cccc(OC(F)F)c3)c2n1 [compound 910, 3-cyclobutyl-1-[3-(difluoromethoxy)phenyl]-4-[4-(morpholin-4-yl)piperidin-1-yl]-1H-pyrazolo[3,4-b]pyridine-6-carboxylic acid]			531.5026
CC(F)(F)c1cccc(-n2nc(C3CCC3)c3c(N4CCC(N5CCOCC5)CC4)cc(C(=O)O)nc32)c1 [compound 915]			423.3333
CC(C)Oc1cccc(-n2nc(C3CCC3)c3c(N4CCC(N5CCOCC5)CC4)cc(C(=O)O)nc32)n1 [compound 924, 3-cyclobutyl-4-[4-(morpholin-4-yl)piperidin-1-yl]-1-{6-[(propan-2-yl)oxy]pyridin-2-yl}-1H-pyrazolo[3,4-b]pyridine-6-carboxylic acid]	10.6		235.9027
CC(C)Oc1nn(C2CCCCC2)c2nc(C(=O)O)cc(-c3ccc(CN4CC(N(C)C)C4)cc3)c12 [compound 927, 1-cyclohexyl-4-(4-{[3-(dimethylamino)azetidin-1-yl]methyl}phenyl)-3-[(propan-2-yl)oxy]-1H-pyrazolo[3,4-b]pyridine-6-carboxylic acid]	1940		
